Tests used:
weeds = test: Example 12 UC Davis almond orchard: weed control; format: in vivo; settings: 1 to 5 months after treatment, all treatment rates
Procedure: (§1) A field trial was conducted in northern California for weed control and safety in one peach orchand and two almond orchards. The herbicide applications were made between January and February when the tree crops were dormant.

[1] = test system: crabgrass (Digitaria spp.); test: Example 6 Kerman almond orchard: crabgrass control; format: in vivo; settings: 184 DAT, 0.4 and 0.8 lb fluridone/ac
Procedure: (§2) Field trials were conducted in California to determine sweet almond (Prunus dulcis) tolerance to fluridone and efficacy of fluridone in an irrigated orchard environment. Trial locations included a two-year old almond stand in Kerman, Calif. and a six-year old stand in Shafter, Calif. The soil in both locations is classified as a sandy loam. Applications prior to emergence of weeds (PRE) of herbicides were made in the month of January in Kerman and in the month of January in Shafter. […] Rainfall (0.32 in (about 0.813 cm)) and irrigation (1.5 in (about 3.81 cm)) one day after PRE applications were used to incorporate herbicides into the soil at the Kerman and Shafter locations, respectively. Both sites were irrigated as needed during the growing season to avoid drought conditions. Visual evaluations of crop injury and weed control were made monthly on a 0 to 100% scale. Postemergent (POST) broadcast applications of a non-selective, contact herbicide was broadcast across all treatments in Kerman prior to the 90 days after treatment and 119 days after treatment (DAT) ratings. Thus, data from those ratings dates was not evaluated. No POST applications were made in Shafter.

[2] = test system: hare barley, annual sowthistle, black medic, chickweed, and redstem filaree; test: Example 12 Arbuckle almond orchard: weed control; format: in vivo; settings: approximately 1, 2 and 3 months after treatment
Procedure: as §1
Weed control and crop safety were evaluated at approximately 1, 2, and 3 months after treatment. Weed pressure was fairly heavy, and uniform over the trial site. Populations of hare barley, annual sowthistle, black medic, chickweed, and redstem filaree were recorded.

[3] = test system: yellow nutsedge (Cyperus esculentus L.); test: Example 6 Kerman almond orchard: yellow nutsedge control; format: in vivo; settings: 184 DAT, 0.4 and 0.8 lb fluridone/ac
Procedure: as §2

hairy fleabane [4] = test: Example 6 Shafter almond orchard: hairy fleabane control; format: in vivo, Conyza bonariensis; settings: 211 DAT, fluridone 0.4 and 0.8 lb/ac
Procedure: as §2

[5] = test system: sprangletop (Leptochloa sp.); test: Example 6 Shafter almond orchard: sprangletop control; format: in vivo; settings: 211 DAT, three highest rates of fluridone
Procedure: as §2

[6] = test system: weeds (total weed control); test: Example 10 irrigated walnut, Stockton, Calif.: total weed control; format: in vivo; settings: fluridone 0.2 to 0.4 lb/ac
Procedure: An experiment with walnut was conducted during the months of December to the month of June the following year in Stockton, Calif. Plots were arranged as a randomized complete block with three replicates. Plots were 8 ft×8 ft (about 2.43 meters by meters)(1 tree/plot). The soil on the site is classified as a clay loam. […] The site received approximately four inches (about 10.16 cm) of rainfall in the first 35 DAT, and an additional 2.9 inches (about 7.366 cm) rainfall and 6.5 inches (about 16.51 cm) irrigation the next 124 days thereafter. Visually evaluations of weed control were made monthly on a 0 to 100% scale.

[7] = test system: spotted spurge (Euphorbia maculate); test: Example 6 Shafter almond orchard: spotted spurge control; format: in vivo; settings: 211 DAT, fluridone 0.4 and 0.8 lb/ac
Procedure: as §2

hairy fleabane [8] = test: Example 8 Elderwood orange orchard: hairy fleabane control; format: in vivo
Procedure: (§3) A field trial was conducted in California to evaluate tolerance of non-bearing “Cara Cara” orange (Citrus sinensis) to fluridone and the efficacy of fluridone in an irrigated orchard environment. The trial was initiated in the month of January in Elderwood, Calif. The soil on the trial site was classified as a clay. […] Rainfall (0.44 in. (about 1.12 cm)) that occurred in the first week following PRE application incorporated the herbicides into the soil. The site was irrigated as needed during the growing season to avoid drought conditions. Visual evaluations of crop injury and weed density were made on a 0 to 100% scale. Additionally, plant counts per plot of weed species present were conducted for each evaluation period.

[9] = test system: Palmer amaranth (Amaranthus palmeri); test: Example 9 greenhouse: preemergence Palmer amaranth control under varying irrigation; format: in vivo; settings: fluridone 0.2 lb/ac, coarse sand soil, irrigation 0 to 1.0 inch
Procedure: An experiment was conducted beginning in the month of August in a greenhouse. The greenhouse was arranged as a randomized complete block with four replicates. A coarse sand soil was used to fill four inch diameter pots. […] Overhead irrigation occurred eight and 10 days after treatment, applying an additional 0.25 inch (abou 0.635 cm) of water to each pot. Palmer amaranth control was determined by counting seedlings in each pot weekly.

[10] = test system: redmaids (Calandrinia sp.); test: Example 7 Kerman vineyard: redmaids control; format: in vivo; settings: 58 DAT, fluridone 0.2, 0.4 and 0.8 lb/ac
Excerpt: (§4) Trials were placed in grape vineyards located in Kerman and Kingsburg, Calif. The soil in both locations is classified as a sandy loam. Preemergent herbicide applications were made in the month of January in Kerman and in the month of March in Kingsburg. […] Additionally, indaziflam applied at 0.065 lb/ac was included at the Kingsburg site. […] Both sites were irrigated as needed during the growing season to avoid drought conditions. Visual evaluations of crop injury and weed control were made monthly on a 0 to 100% scale. Cultivation occurred in the row centers at the Kerman location following the 58 DAT evaluations, and therefore, the Kerman results following 58 DAT were not evaluated. No cultivation occurred in Kingsburg during the trial period.

[11] = test system: witchgrass (Panicum capillare L.); test: Example 8 Elderwood orange orchard: witchgrass control; format: in vivo; settings: 168 DAT, three highest fluridone rates; indaziflam
Procedure: as §3

Palmer amaranth = test: Example 10 dryland cotton field, Jackson, Tenn.: Palmer amaranth control; format: in vivo, Amaranthus palmeri; settings: fluridone 0.1 to 0.5 lb/ac
Procedure: An experiment with cotton was conducted during the months of April to the month of June in Jackson, Tenn. Plots were arranged as a randomized complete block with four replicates. Plots were 6.3 ft by 30 ft (about 1.92 meteres by about 9.114 meters). The soil on the site was classified as a silt loam soil. […] The site received approximately four inches (about 10.16 cm) of rainfall in the first 35 days after treatment (DAT). Visually evaluations of Palmer amaranth control were made twice a month on a 0 to 100% scale.

yellow nutsedge = test: Example 6 Shafter almond orchard: yellow nutsedge control; format: in vivo, Cyperus esculentus L.
Procedure: as §2

weeds in walnut orchard = test: Example 11 walnut orchard field trial: weed efficacy; format: in vivo
Procedure: A field trial was performed in a dormant 4th year walnut orchard (Chandler variety) located near Stockton, Calif. The trial was initiated in December for weed efficacy studies and crop tolerance studies. Plots were about 8 feet by about 18 feet (about 2.43 meters by about 5.49 meters) with one tree per plot arranged in a randomized complete block design with three replications. Fluridone, flumioxazin, Roundup, and glufosinate ammonium were tested.

[12] = test system: 'Thompson' grape (Vitis vinifera); test: Example 7 field trials: grape tolerance; format: in vivo; settings: PRE application, Kerman and Kingsburg
Excerpt: as §4

[13] = test system: "Cara Cara" orange (Citrus sinensis); test: Example 8 field trial: orange tolerance; format: in vivo; settings: Elderwood, PRE application, trial period
[14] = test system: prostrate spurge (Euphorbia supine Raf.); test: Example 8 Elderwood orange orchard: prostrate spurge control; format: in vivo; settings: 168 DAT, PRE
Procedure: as §3

cotton plants [15] = test: Example 3 growth chamber trial, pre-emergent application on cotton; format: in vivo
Procedure: 0.1 L conical assay tubes were planted with a cotton or soybean seed in a sample of sandy loam soil. Seven tubes were prepared for each herbicide application rate. Application of a herbicide composition was performed after planting the seed and prior to the plant's emergence from the soil (i.e., pre-emergent or PRE). Approximately 0.15 inches of water was applied to each pot four hours after application. […] The greenhouse was maintained at 26±5° C. during the day and 11±1° C. during the night.

cotton plants [16] = test: Pot demonstration of safening in cotton (FIG. 4); format: in vivo; settings: three cotton plants planted, flumioxazin only (FIG. 4)
Excerpt: Flumioxazin is another herbicide member of the PPO-inhibitor class that is commonly applied pre-emergent to control weeds, and has the chemical name 2-[7-fluoro-3,4-dihydro-3-oxo-4-(2-propynyl)-2H-1,4-benzoxazin-6-yl]-4,5,6,7-tetrahydro-1H-isoindole-1,3(2H)-dione. In certain embodiments of the present invention, flumioxazin can be applied to soil at a rate of about 0.015 pounds per acre to about 0.25 pounds per acre. In other embodiments, flumioxazin can be applied to soil at a rate of about 0.03 pounds per acre to about 0.25 pounds per acre. In another embodiment, flumioxazin can be applied to soil at a rate of about […] to about 0.2 pounds per acre.

[17] = test system: sweet almond (Prunus dulcis); test: Example 6 field trials: almond tolerance; format: in vivo; settings: Kerman, any PRE herbicide application
Procedure: as §2

P. amaranth [18] = test: May field trial: weed control in cotton field; format: in vivo, Amaranthus palmeri; settings: May planting field trial, pre-emergent, 1 and 9 weeks post treatment
Procedure: (§5) Cotton was planted in fields in May. The field was then over seeded with P. amaranth. […] Within 24 hours of application of the herbicide, 0.25 inches of rain was recorded. An additional planting of cotton, by hand, was conducted in August with multiple rates.

cotton [19] = test: May field trial: phytotoxicity to cotton; settings: May planting field trial, pre-emergent, 1 and 9 weeks post treatment
Procedure: as §5

P. amaranth [20] = test: Greenhouse trial: P. amaranth control across soil types and moisture conditions; format: in vivo, Amaranthus palmeri; settings: low moisture conditions across some soil types
Excerpt: In addition to these field trials, greenhouse studies were also undertaken. The greenhouse studies evaluated the use of fluridone, fomesafen, and the combination of fluridone and fomesafen as well as the affect of soil types, and moisture conditions. Four soil types were examined: a predominantly clay soil, a sandy loam soil, a loamy peat soil, and a sandy soil. The moisture conditions evaluated were at 0.2 inches of water, and 1.5 inches of water.

cotton [21] = test: Greenhouse trial: cotton response across soil types and moisture conditions; format: in vivo
Excerpt: In addition to these field trials, greenhouse studies were also undertaken. […] Four soil types were examined: a predominantly clay soil, a sandy loam soil, a loamy peat soil, and a sandy soil.

1-methyl-3-phenyl-5-[3-(trifluromethyl)phenyl]-4(1H)-pyridone [fluridone]
weed control (weeds): good weed control
crabgrass control greater than flumioxazin [1]: 10%
control of all weeds present [2]: ~100%
yellow nutsedge control compared to flumioxazin [3]: similar
hairy fleabane control compared to 0.1 and 0.2 lb fluridone/ac (hairy fleabane [4]): significantly greater control
sprangletop control compared to flumioxazin [5]: significantly greater control than flumioxazin
total weed control [6]: good total weed control
spotted spurge control compared to 0.1 and 0.2 lb fluridone/ac [7]: significantly greater control
hairy fleabane control (hairy fleabane [8]): Neither fluridone nor indaziflam effectively controlled
preemergent Palmer amaranth control vs amount of irrigation [9]: increasing the amount of irrigation increases preemergent control
redmaids control greater than flumioxazin [10]: 13.5%
control of witchgrass [11]: 100%
Palmer amaranth control (Palmer amaranth): good control of Palmer amaranth
yellow nutsedge control compared to 0.1 and 0.2 lb fluridone/ac (yellow nutsedge; 211 DAT, fluridone 0.4 and 0.8 lb/ac): significantly greater control
yellow nutsedge control compared to flumioxazin (yellow nutsedge; fluridone applied at every rate): significantly greater than flumioxazin
weeds observed in plots (weeds in walnut orchard; 129 DAT, lower rates): Some weeds were observed
weeds observed in plots (weeds in walnut orchard; 159 DAT, fluridone applied at lower rates): lambsquarter, bindweed, spurge and knotweed were observed

Cc1ccc2c(c1)[C@H](Nc1nc(N)nc(C(C)F)n1)[C@@H](C)C2 (mixture of isomers) [indaziflam, N-[(1R,2S)-2,3-dihydro-2,6-dimethyl-1H-inden-1-yl]-6-[(1RS)-1-fluoroethyl]-1,3,5-triazine-2,4-diamine]
phytotoxicity [12]: Phytotoxicity was not observed
phytotoxicity [13]: did not contribute to phytotoxicity
prostrate spurge control [14]: 95%
hairy fleabane control (hairy fleabane [8]): Neither fluridone nor indaziflam effectively controlled
control of witchgrass [11]: 100%

C#CCN1C(=O)COc2cc(F)c(N3C(=O)C4=C(CCCC4)C3=O)cc21 [flumioxazin, 2-[7-fluoro-3,4-dihydro-3-oxo-4-(2-propynyl)-2H-1,4-benzoxazin-6-yl]-4,5,6,7-tetrahydro-1H-isoindole-1,3(2H)-dione]
phytotoxicity [12]: Phytotoxicity was not observed
crop stand (number of viable plants) (cotton plants [15]; 0.05 lb/A flumioxazin, seven tubes): one surviving plants out of seven
growth stage / growth stunting (cotton plants [15]; 26 days after treatment, flumioxazin 0.05 lb/A, scale 0-3): the most growth stunting
injury to cotton plants (cotton plants [15]; application rates greater than 0.025 lb/A flumioxazin): significantly injured
cotyledons with excessive wrinkling and brown spotting due to herbicide injury (cotton plants [15]; flumioxazin alone 0.05 lb/A, 26 days after treatment): all of the cotyledons show brown spotting
lethality to cotton plants (cotton plants [15]; flumioxazin at the highest rates (FIG. 15)): fatal to cotton plants
emergence of cotton plants from the soil (cotton plants [16]): only one emerged from the soil
phytotoxicity [17]: Phytotoxicity was not observed
weeds observed in plots (weeds in walnut orchard; 129 DAT, lower rates): Some weeds were observed

CS(=O)(=O)NC(=O)c1cc(Oc2ccc(C(F)(F)F)cc2Cl)ccc1[N+](=O)[O-] [fomesafen, 5-[2-chloro-4-(trifluoromethyl)phenoxy]-N-(methylsulfonyl)-2-nitrobenzamide]
control of P. amaranth (P. amaranth [18]): showed control of P. amaranth
phytotoxicity (cotton [19]): no phytotoxicity was observed
P. amaranth control (P. amaranth [20]): not able to provide complete P. amaranth control
growth of treated cotton plants (cotton [21]; 4 weeks after planting (FIG. 3A, 3B)): stunting effect on cotton
stunting (cotton [21]; less than ideal growing conditions, compared to fluridone and fluridone/fomesafen treatments): some stunting was observed

— patent US11026423B2, “Herbicidal compositions and methods” (SePRO Corporation, priority 2013, dated 2021)
